According to patent US10322112B2, “Compound combinations for attenuation of bacterial virulence” (priority 2016, dated 2019):
“Also recorded” adds a separate entry of the source.

Experiments:
Type in all cases: cell-based, Pseudomonas aeruginosa
[1] = system: P. aeruginosa (PAO1); test: Elastase B assay; conditions: MOPS Glutamate and Glucose media, complete or iron/phosphate depleted, 17 h, 100 μM (compounds 1, 2, 3), relative to DMSO
Experimental: A. Pyocyanin Assay Protocol. The amount of pyocyanin in P. aeruginosa culture supernatants was measured following a reported protocol (O'Loughlin et al., 2013) with modifications. A 10 mL overnight culture of P. aeruginosa PAO1 was grown for 16 h. DMSO stock solutions of test compounds (20 mM) were prepared, and 10 μL or 5 μL aliquots were added to sterile 15 mL borosilicate glass test tubes. An inoculating culture was prepared by diluting the overnight culture 1:100 into freshly prepared assay medium (see above), and 2 mL aliquots of this subculture were added to each test tube (0.5% DMSO, final). The cultures were grown for 17 h, and the final cell density measured by reading OD600. Relative pyocyanin levels were measured by first pelleting 1.5 mL of well-mixed culture at 4,000 g for 10 min, transferring 200 μL of the resulting supernatant to a clear, plastic 96-well microtiter plate, and reading absorbance at 695 nm. Media background absorbance (measured from a “no bacteria” control) was subtracted, the resulting values growth normalized by dividing by the final OD600378, and the data plotted relative to a DMSO-treated positive control. B. Rhamnolipid Assay Protocol. Rhamnolipid was quantified following a reported protocol (Koch et al., 1991) with modifications. Assay cultures were prepared and grown in an identical manner to the pyocyanin assay above. Aliquots of the final culture supernatant (1 mL) were transferred to 1 dram glass vials and extracted twice with 1 mL diethyl ether. The pooled organic fractions were evaporated to dryness, and the resulting residue reconstituted in 200 μL de-ionized water. […] After briefly cooling to room temperature, 200 μL of the resulting yellow to yellow-orange solution was transferred to a clear 96-well microtiter plate, and the absorbance at 421 nm measured. Media background absorbance (measured from a “no bacteria” control) was subtracted, the resulting values growth normalized by dividing by the final OD600, and the data plotted relative to a DMSO-treated positive control. […] The amount of elastase B in P. aeruginosa culture supernatants was measured following a reported protocol (Geske et al., 2007) with modifications. […] To quantify elastase B activity, the undigested elastin was pelleted by centrifugation of the assay plate at 1,500 g for 10 min, after which 100 μL of the supernatant was transferred to a new, clear 96-well plate, and the absorbance at 490 nm measured. Media background absorbance (measured from a “no bacteria” control) was subtracted, the resulting values growth normalized by dividing by the final OD600, and the data plotted relative to a DMSO-treated positive control.

[2] = system: P. aeruginosa (PAO1); test: P. aeruginosa growth curves
Experimental: FIGS. 2A-2D are wild-type P. aeruginosa growth curves in the presence of test compounds in various media. Related to FIGS. 3, 6A and 6B, 7A and 7B, and 12. (FIG. 2A) Growth curves in complete MOPS/Glutamate. (FIG. 2B) Growth curves in complete MOPS/Glucose. […] (FIG. 2D) Growth curves in SCFM2. P. aeruginosa (PAO1) was grown in a manner identical to the pyocyanin assay (see Experimental Procedures). At each time point, growth was measured by either reading OD600 (for MOPS media) or by serially diluting culture aliquots, plating on LB agar, and counting CFUs after overnight incubation at 37° C. (for SCFM2). Compound concentrations are 100 microM for compounds 1, 2, and 3 and 25 microM for compound 4 in all experiments unless noted otherwise. Error bars represent the standard error of at least two biological replicates (n≥2). BHL=N-butyryl L-homoserine lactone (Cayman Chemicals).
B. Bacterial Strains and Growth Conditions. Protocols for construction of genetic knockout strains are described below in Example 2. All reagents for bacterial culture were purchased from Sigma-Aldrich unless indicated otherwise. Bacteria were routinely cultured in Luria-Bertani broth (LB) at 37° C. with shaking at 200 rpm. Freezer stocks of bacterial strains were maintained at −80° C. in 1:1 LB:glycerol. Bacterial growth was routinely assessed by measuring the culture cell density according to absorbance at 600 nm (OD600341). Cell growth in simulated cystic fibrosis sputum medium (SCFM2) was determined by serially diluting assay cultures, plating on LB agar, and counting the number of colony forming units (CFU) appearing after overnight incubation at 37° C.

[3] = system: P. aeruginosa (PAO1); test: Pyocyanin assay; conditions: MOPS Glutamate and Glucose media, complete or iron/phosphate depleted, 17 h, 100 μM (compounds 1, 2, 3), 25 μM (compound 4), relative to DMSO
Experimental: A. Pyocyanin Assay Protocol. The amount of pyocyanin in P. aeruginosa culture supernatants was measured following a reported protocol (O'Loughlin et al., 2013) with modifications. A 10 mL overnight culture of P. aeruginosa PAO1 was grown for 16 h. DMSO stock solutions of test compounds (20 mM) were prepared, and 10 μL or 5 μL aliquots were added to sterile 15 mL borosilicate glass test tubes. An inoculating culture was prepared by diluting the overnight culture 1:100 into freshly prepared assay medium (see above), and 2 mL aliquots of this subculture were added to each test tube (0.5% DMSO, final). The cultures were grown for 17 h, and the final cell density measured by reading OD600. Relative pyocyanin levels were measured by first pelleting 1.5 mL of well-mixed culture at 4,000 g for 10 min, transferring 200 μL of the resulting supernatant to a clear, plastic 96-well microtiter plate, and reading absorbance at 695 nm. Media background absorbance (measured from a “no bacteria” control) was subtracted, the resulting values growth normalized by dividing by the final OD600378, and the data plotted relative to a DMSO-treated positive control. B. Rhamnolipid Assay Protocol. Rhamnolipid was quantified following a reported protocol (Koch et al., 1991) with modifications. Assay cultures were prepared and grown in an identical manner to the pyocyanin assay above. Aliquots of the final culture supernatant (1 mL) were transferred to 1 dram glass vials and extracted twice with 1 mL diethyl ether. The pooled organic fractions were evaporated to dryness, and the resulting residue reconstituted in 200 μL de-ionized water. In a 1.7 mL plastic centrifuge tube, 50 μL of this extract was diluted into 450 μL of a solution of 0.19% (w/v) orcinol in 50% (v/v) concentrated H2SO4 (or 20 μL extract into 480 μL orcinol solution for cultures grown in MOPS Glucose medium). The tubes were vortexed thoroughly to mix and incubated in an 80° C. heating block for 30 min. After briefly cooling to room temperature, 200 μL of the resulting yellow to yellow-orange solution was transferred to a clear 96-well microtiter plate, and the absorbance at 421 nm measured. Media background absorbance (measured from a “no bacteria” control) was subtracted, the resulting values growth normalized by dividing by the final OD600, and the data plotted relative to a DMSO-treated positive control. C. Elastase B Assay Protocol. The amount of elastase B in P. aeruginosa culture supernatants was measured following a reported protocol (Geske et al., 2007) with modifications. Assay cultures were prepared and grown in an identical manner to the pyocyanin assay above. Aliquots of the final culture supernatant (50 μL) were added to the wells of a clear, plastic 96-well plate. To each well, 150 μL of 0.5% (w/v) elastin-congo red conjugate (Elastin Products Co.) in Tris buffer (10 mM Tris-HCl, 1 mM CaCl2, pH 7.2) was added. The plate was sealed with a polypropylene storage mat (Costar 3080) and incubated in a 37° C. shaking incubator (200 rpm) attached to a Labquake rotator for 12 h (for experiments in SCFM2) or 24 h (for experiments in MOPS medium). To quantify elastase B activity, the undigested elastin was pelleted by centrifugation of the assay plate at 1,500 g for 10 min, after which 100 μL of the supernatant was transferred to a new, clear 96-well plate, and the absorbance at 490 nm measured. Media background absorbance (measured from a “no bacteria” control) was subtracted, the resulting values growth normalized by dividing by the final OD600, and the data plotted relative to a DMSO-treated positive control.

O=C(N[C@H]1CCOC1=O)C1CCCC1 [compound 3]
elastase B production, single compound screens [1]: induced additional rhamnolipid and elastase B production
growth with other carbon sources ([2]; complete MOPS Glucose or LB broth, 100 μM compound 3): did not observe growth effects with other carbon sources
growth in MOPS Glutamate ([2]; complete MOPS Glutamate, 100 μM): growth delay; also recorded: delayed P. aeruginosa growth in MOPS Glutamate
pyocyanin production, single compound screens [3]: blocked pyocyanin production under nearly all of the environmental conditions tested
